Like-named read-outs stand apart in the source and are kept apart here. No end group written: not given here.

Data set [1] is described as follows: Preliminary solubility test of INS peptide salts in co-solvents and water. The data set is classed as physicochemical. The conditions noted are these: for solubility: read-out: Approximate Solubility; for Solubility in PBS: physiological conditions. The protocol: Solubility of different INS peptide salts was measured in several co-solvents and in water.
Data set [2] can be described thus: Stability of formulations F4, F7 and F10 (HPLC). The data set is classed as physicochemical. The conditions noted are these: F4, F7 and F10, ambient temperature and 4° C., 24 hours. Here is the method:
To investigate the stability of formulation F4, F7 and F10 they were stored at ambient temperature and at 4° C. Samples were taken out at time zero (initial) and after 24 hours and diluted 10 times with water prior to HPLC analysis. The results were compared to the standard peptide 0.5 mg/ml in water (STD).

A short description of data set [3]: Stability study of lyophilized formulation after reconstitution. The data set is classed as physicochemical. The protocol: To obtain an isotonic solution having desired osmolality of about 300-330 mOsm/kg, the poloxamer percentage was reduced to 0.8% and the lactose percentage was reduced to 9.5%. The solution formulation F45 was prepared in a 40 ml clear glass vial according to Table 20. The pH was adjusted by NH4OH. […]
The physical and chemical stability of lyophilized powder obtained in Example 10 was investigated. The lyophilized powder was stored at −20° C. […] Formulations before filtration were used as a control (initial state) at each time point. […] At the time point: 0 h, 24 hours and 7 days appearance, pH and osmolarity were tested and the solutions were analyzed by HPLC for the presence of degradation. The recovery percent after filtration was also calculated. To investigate short-term in-use stability, additional 218 mg of lyophilized material was reconstituted, and the solution was stored at room temperature for 4 hours. […]

Data set [4] relates to 1975 human lung cancer cells. As to the kind of experiment: Lung cancer tumor mice model. The settings on record: INS HCL and tumor-targeted lentiviral particles; lung cancer and pancreatic cancer models. The data set is classed as in vivo, athymic nude mice. The protocol: Two models of cancer were generated: lung cancer and pancreatic cancer. About 5×10^6 of 1975 human lung cancer cells per 0.1 ml PBS per mouse were injected to male 7 weeks old athymic nude mice (n=30). The cells were injected, subcutaneously at one site on the back of the mice. About 5×10^6 PANC-1 human pancreatic cancer cells per 0.1 ml PBS per mouse were injected to male 7 weeks old athymic nude mice (n=22). The cells were injected, subcutaneously at one site on the back of the mice. When tumors were palpable (˜0.3-0.5 cm^3), the mice were randomly divided into three groups (Table 27) and the viruses and/or peptides were injected, twice a week for two weeks.
The first day of the study was defined as ‘Day 1’. The animals were administrated IP with either Vehicle (PBS or Formulation), lentiviral particles and SC with test items according to Table 27 on days 1, 4, 8 and 11. Body weight and tumor volume were checked on days 3, 7, 11, 14 and 17 (the latter was measured with a caliper). At the end of the experiment, on day 17, the mice were anesthetized and then sacrificed, and the tumors were removed, as well as lung, spleen, kidney and liver.

Data set [5] can be described thus: Phase I/IIa clinical trial: safety and tolerability. The data set is classed as in vivo, human. The settings on record: HIV patients, SC twice weekly, 1% poloxamer 188 and 9% lactose formulation; preliminary results. The source says: Patients are monitored for adverse events (AE) of the INS peptide such as rash, acute allergic reaction, bronchospasm, respiratory distress, and acute vascular leak syndrome. If a severe administration related reaction occurs, the drug administration is stopped. Blood chemistry, hematology, coagulation, and urinalysis are repeated on Days 1, 4, 8, 11, 15, 18, 22, 25 at the clinic visits.
The primary safety endpoint is the frequency, severity, and duration of side effects. Number of participants with treatment-related adverse events as assessed by CTCAE v4.03, are evaluated though study completion. Main adverse events evaluation is based on DADS Toxicity criteria (Division of AIDS DADS Table for Grading the Severity of Adult and Paediatric Adverse Events, Corrected Version 2.1): • Viral load • Lymphopenia/Neutropenia • Immuno-reaction over reaction/cytokine storm • Infection surrounding the administration site • Liver function (lab tests) • Kidney function (lab tests)
Incidence of withdrawal (drop-out rate) due to side effects is evaluated throughout the study.

In the case of WTAVQMAVFIHNFKRK [INS HCl], the solubility in data set [1] (DMSO) is no more than 10000 µg/mL; in data set [1] (PEG400) it was less than 5000 µg/mL; in data set [1] (ethanol), less than 5000 µg/mL; in data set [1] (propylene glycol (PG)) it was 5000 to 10000 µg/mL; in data set [1] (water, pH 2.6, H2O), greater than 10000 µg/mL. The “Appearance in H2O” value in data set [1] (H2O) was “slightly opalescence”. The “pH in H2O” value in data set [1] (H2O, 10 mg/ml) is on record as 2.60. Besides, the “Approximate Solubility” value in data set [1] (PBS) is recorded as “Not soluble”. Moreover, in data set [1] (PBS), the “Solubility in PBS” value is listed as “practically insoluble”. Moreover, in data set [1] (PEG400), the “Solubility in PEG400” value is reported as “poor solubility”. For the same sequence, in data set [1] (Propylene glycol (PG), 5mg/ml), the “Appearance in propylene glycol” value is listed as “clear solution”. Also, the “Solubility in ethanol” value in data set [1] (ethanol) is “poor solubility”. Also, the “Solubility in PG” value in data set [1] (propylene glycol, a clear solution was obtained) is listed as “moderate solubility”. For the same sequence, the “Appearance of solution in water” value in data set [1] (water) is reported as “solution with opalescence”. The “pH of solution in water” value in data set [1] (water) came out at 2.6. Further, the “Stability in formulations” value in data set [2] is given as “high stability in all formulations”. Moreover, the “Peptide adsorbed to PES filters” value in data set [3] (PES filters) is recorded as “about 30%”. For the same sequence, the “Time stable at room temperature after reconstitution” value in data set [3] (room temperature, no significant difference in comparison to control) was “at least 4 hours”. Moreover, in data set [4], the “Decrease in growth of tumors” value is “up to 50%”. In data set [5], the “Safety and tolerability” value was “safe and well tolerable”.

WTAVQMAVFIHNFKRK [INS TFA]: the “Concentration dissolved in DMSO” value in data set [1] (DMSO) is no more than 10000 µg/mL. Moreover, in data set [1] (solution in water or DMSO diluted in PBS), the “Behaviour upon dilution in PBS” value is on record as “precipitated”. Moreover, the “Concentration dissolved in water” value in data set [1] (water) is no more than 10000 µg/mL.

In the case of WTAVQMAVFIHNFKRK [INS acetate], in data set [1] (DMSO), the “Solubility in DMSO” value is reported as “completely insoluble”. In data set [1] (PBS), the “Solubility in PBS” value is “completely insoluble”. Besides, in data set [1] (dissolved in low pH, pH raised), the “pH above which the dissolved salt precipitated” value was “above 4”. Further, the “Solubility in water” value in data set [1] (water) was “soluble”.

As a reminder, the solubility is how much of the substance goes into solution per volume.

Values taken from US20220233652A1, “Pharmaceutical Compositions Comprising Integration-Promoting Peptides” (priority 2018, published 2022).
